Reference: patent US20250230193A1, “CYCLIC COMPOUND HAVING SELECTIVE KRAS INHIBITORY EFFECT ON HRAS AND NRAS” (CHUGAI SEIYAKU KABUSHIKI KAISHA, priority 2022, published 2025)
*1 amine or outer side, *2 acyl side, *3 side chain or, on linkers, in order; H or OH if unused. Where a SMILES comes first, the peptide text is derived from it. Bridges are numbered along the chain shown (N, C = ends). [ ]: non-standard residue; d: D form. The star is where a group is joined. hPhe(3-Cl-4-CF3) = N[C@@H](CCc1ccc(C(F)(F)F)c(Cl)c1)C(=O)O; NPrPhe(4-CF3) = CCCN[C@@H](Cc1ccc(C(F)(F)F)cc1)C(=O)O; X19 = CCCCN([C@@H](Cc1ccc(C)cc1)C(=O)[*:2])[*:1]; NPrPhe(4-Me) = CCCN[C@@H](Cc1ccc(C)cc1)C(=O)O; 3Oxa8azabicyclo(3.2.1)octane = C1CC2COCC1N2*; NEtPhe(4-Me) = CCN[C@@H](Cc1ccc(C)cc1)C(=O)O; NMePhe(4-Me) = CN[C@@H](Cc1ccc(C)cc1)C(=O)O; NMeGly(cPent) = CN[C@H](C(=O)O)C1CCCC1; Hyp = O=C(O)[C@@H]1C[C@@H](O)CN1; NMeI = CC[C@H](C)[C@H](NC)C(=O)O; NMeD = CN[C@@H](CC(=O)O)C(=O)O; NMeL = CN[C@@H](CC(C)C)C(=O)O; NMeV = CN[C@H](C(=O)O)C(C)C; Morpholide = C1CN(*)CCO1; NMeA = CN[C@@H](C)C(=O)O; NMeAib = CNC(C)(C)C(=O)O; Nle = CCCC[C@H](N)C(=O)O; Piperidide = C1CCN(*)CC1; Ac5c = NC1(C(=O)O)CCCC1; Aze = O=C(O)[C@@H]1CCN1; Sar = CNCC(=O)O

Key:
[1] = target: GDP-bound NRAS wild-type protein (Homo sapiens, UniProt P01111); assay: Binding to NRAS by surface plasmon resonance (SPR), Single Cycle Kinetics; settings: KD ratio NRAS/KRAS, SPR
Chain of GDP-bound NRAS wild-type protein (P01111 whole entry): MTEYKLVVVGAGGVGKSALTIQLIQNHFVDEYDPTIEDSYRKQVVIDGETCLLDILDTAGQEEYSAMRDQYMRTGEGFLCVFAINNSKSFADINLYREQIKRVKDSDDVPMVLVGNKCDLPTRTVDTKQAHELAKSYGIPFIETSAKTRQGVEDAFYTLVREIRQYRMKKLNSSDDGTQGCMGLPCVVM

[2] = target: GDP-bound HRAS wild-type protein (Homo sapiens, UniProt P01112); assay: Binding to HRAS by surface plasmon resonance (SPR), Single Cycle Kinetics; settings: KD ratio HRAS/KRAS, SPR
Chain of GDP-bound HRAS wild-type protein (P01112 whole entry): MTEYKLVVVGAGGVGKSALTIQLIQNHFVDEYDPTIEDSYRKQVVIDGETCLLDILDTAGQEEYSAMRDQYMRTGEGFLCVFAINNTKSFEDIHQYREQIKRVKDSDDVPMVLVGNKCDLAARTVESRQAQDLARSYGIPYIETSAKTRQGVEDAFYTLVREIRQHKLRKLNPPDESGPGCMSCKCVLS

Row | SMILES | NRAS/KRAS (ratio of KD for GDP-bound NRAS wild-type to KD for KRAS) [1] | HRAS/KRAS (ratio of KD for GDP-bound HRAS wild-type to KD for KRAS) [2]
1 | CC[C@H](C)[C@@H]1NC(=O)[C@H](CC(C)C)N(C)C(=O)C[C@@H](C(=O)N2CCOCC2)N(C)C(=O)[C@H](C2CCCC2)N(C)C(=O)C2(CCCC2)NC(=O)[C@@H]2C[C@@H](O)CN2C(=O)[C@H](CCc2ccc(C(F)(F)F)c(Cl)c2)NC(=O)CN(C)C(=O)[C@H](Cc2ccc(C)cc2)N(CC)C(=O)CN(C)C(=O)CN(C)C1=O [PP0041] ([NMeL]I[Sar][Sar][NEtPhe(4-Me)][Sar][hPhe(3-Cl-4-CF3)][Hyp][Ac5c][NMeGly(cPent)][NMeD]-Morpholide; lactam N-11) | B (a compound having 3 or more and less than 10 is denoted as B) | C (A compound having a KD ratio of 0.1 or more and less than 3 is denoted as C)
2 | CCO[C@@H]1C[C@H]2C(=O)NC3(CCCC3)C(=O)N(C)[C@@H](C3CCCC3)C(=O)N(C)[C@H](C(=O)N3CCOCC3)CC(=O)N(C)[C@@H](CC(C)C)C(=O)N[C@@H]([C@@H](C)CC)C(=O)N(C)CC(=O)N(C)CC(=O)N(CC)[C@@H](Cc3ccc(C)cc3)C(=O)N(C)CC(=O)N[C@@H](CCc3ccc(C(F)(F)F)c(Cl)c3)C(=O)N2C1 [PP0042] ([NMeL]I[Sar][Sar][NEtPhe(4-Me)][Sar][hPhe(3-Cl-4-CF3)][Hyp](Et)[Ac5c][NMeGly(cPent)][NMeD]-Morpholide; lactam N-11) | C (A compound having a KD ratio of 0.1 or more and less than 3 is denoted as C) | C (A compound having a KD ratio of 0.1 or more and less than 3 is denoted as C)
3 | CC[C@H](C)[C@@H]1NC(=O)[C@H](CC(C)C)N(C)C(=O)C[C@@H](C(=O)N2CCOCC2)N(C)C(=O)[C@H]([C@@H](C)CC)N(C)C(=O)C2(CCCC2)NC(=O)[C@@H]2CCCN2C(=O)[C@H](CCc2ccc(C(F)(F)F)c(Cl)c2)NC(=O)CN(C)C(=O)[C@H](Cc2ccc(C)cc2)N(CC)C(=O)CN(C)C(=O)CN(C)C1=O [PP0043] ([NMeL]I[Sar][Sar][NEtPhe(4-Me)][Sar][hPhe(3-Cl-4-CF3)]P[Ac5c][NMeI][NMeD]-Morpholide; lactam N-11) | C (A compound having a KD ratio of 0.1 or more and less than 3 is denoted as C) | C (A compound having a KD ratio of 0.1 or more and less than 3 is denoted as C)
4 | CC[C@H](C)[C@@H]1NC(=O)[C@H](CC(C)C)N(C)C(=O)C[C@@H](C(=O)N2CCOCC2)N(C)C(=O)[C@H](C(C)C)N(C)C(=O)C2(CCCC2)NC(=O)[C@@H]2CCCN2C(=O)[C@H](CCc2ccc(C(F)(F)F)c(Cl)c2)NC(=O)CN(C)C(=O)[C@H](Cc2ccc(C)cc2)N(CC)C(=O)CN(C)C(=O)CN(C)C1=O [PP0044] ([NMeL]I[Sar][Sar][NEtPhe(4-Me)][Sar][hPhe(3-Cl-4-CF3)]P[Ac5c][NMeV][NMeD]-Morpholide; lactam N-11) | C (A compound having a KD ratio of 0.1 or more and less than 3 is denoted as C) | C (A compound having a KD ratio of 0.1 or more and less than 3 is denoted as C)
5 | CC[C@H](C)[C@@H]1NC(=O)[C@H](CC(C)C)N(C)C(=O)C[C@@H](C(=O)N2CCOCC2)N(C)C(=O)[C@H](CC(C)C)N(C)C(=O)C2(CCCC2)NC(=O)[C@@H]2CCCN2C(=O)[C@H](CCc2ccc(C(F)(F)F)c(Cl)c2)NC(=O)CN(C)C(=O)[C@H](Cc2ccc(C)cc2)N(CC)C(=O)CN(C)C(=O)CN(C)C1=O [PP0045] ([NMeL]I[Sar][Sar][NEtPhe(4-Me)][Sar][hPhe(3-Cl-4-CF3)]P[Ac5c][NMeL][NMeD]-Morpholide; lactam N-11) | C (A compound having a KD ratio of 0.1 or more and less than 3 is denoted as C) | C (A compound having a KD ratio of 0.1 or more and less than 3 is denoted as C)
6 | CCCC[C@@H]1NC(=O)[C@H](CCc2ccc(C(F)(F)F)c(Cl)c2)NC(=O)CN(C)C(=O)[C@H](Cc2ccc(C)cc2)N(C)C(=O)[C@@H]2CCN2C(=O)[C@H](C)N(C)C(=O)[C@H]([C@@H](C)CC)NC(=O)[C@H](CC(C)C)N(C)C(=O)C[C@@H](C(=O)N2CCCCC2)N(C)C(=O)[C@H](CC(C)C)NC(=O)C(C)(C)N(C)C1=O [PP0047] ([NMeL]I[NMeA][Aze][NMePhe(4-Me)][Sar][hPhe(3-Cl-4-CF3)][Nle][NMeAib]L[NMeD]-Piperidide; lactam N-11) | C (A compound having a KD ratio of 0.1 or more and less than 3 is denoted as C) | C (A compound having a KD ratio of 0.1 or more and less than 3 is denoted as C)
7 | CCCC[C@@H]1NC(=O)[C@H](CCc2ccc(C(F)(F)F)c(Cl)c2)NC(=O)CN(C)C(=O)[C@H](Cc2ccc(C)cc2)N(CC)C(=O)[C@@H]2CCN2C(=O)[C@H](C)N(C)C(=O)[C@H]([C@@H](C)CC)NC(=O)[C@H](CC(C)C)N(C)C(=O)C[C@@H](C(=O)N2CCCCC2)N(C)C(=O)[C@H](CC(C)C)NC(=O)C(C)(C)N(C)C1=O [PP0048] ([NMeL]I[NMeA][Aze][NEtPhe(4-Me)][Sar][hPhe(3-Cl-4-CF3)][Nle][NMeAib]L[NMeD]-Piperidide; lactam N-11) | C (A compound having a KD ratio of 0.1 or more and less than 3 is denoted as C) | C (A compound having a KD ratio of 0.1 or more and less than 3 is denoted as C)
8 | CCCC[C@@H]1NC(=O)[C@H](CCc2ccc(C(F)(F)F)c(Cl)c2)NC(=O)CN(C)C(=O)[C@H](Cc2ccc(C)cc2)N(C)C(=O)CN(C)C(=O)CN(C)C(=O)[C@H]([C@@H](C)CC)NC(=O)[C@H](CC(C)C)N(C)C(=O)C[C@@H](C(=O)N2CCCCC2)N(C)C(=O)[C@H](CC(C)C)NC(=O)C(C)(C)N(C)C1=O [PP0049] ([NMeL]I[Sar][Sar][NMePhe(4-Me)][Sar][hPhe(3-Cl-4-CF3)][Nle][NMeAib]L[NMeD]-Piperidide; lactam N-11) | C (A compound having a KD ratio of 0.1 or more and less than 3 is denoted as C) | C (A compound having a KD ratio of 0.1 or more and less than 3 is denoted as C)
9 | CCCC[C@@H]1NC(=O)[C@H](CCc2ccc(C(F)(F)F)c(Cl)c2)NC(=O)CN(C)C(=O)[C@H](Cc2ccc(C)cc2)N(CC)C(=O)CN(C)C(=O)CN(C)C(=O)[C@H]([C@@H](C)CC)NC(=O)[C@H](CC(C)C)N(C)C(=O)C[C@@H](C(=O)N2CCCCC2)N(C)C(=O)[C@H](CC(C)C)NC(=O)C(C)(C)N(C)C1=O [PP0050] ([NMeL]I[Sar][Sar][NEtPhe(4-Me)][Sar][hPhe(3-Cl-4-CF3)][Nle][NMeAib]L[NMeD]-Piperidide; lactam N-11) | B (a compound having 3 or more and less than 10 is denoted as B) | C (A compound having a KD ratio of 0.1 or more and less than 3 is denoted as C)
10 | CC[C@H](C)[C@@H]1NC(=O)[C@H](CC(C)C)N(C)C(=O)C[C@@H](C(=O)N2C3CCC2COC3)N(C)C(=O)[C@H](C2CCCC2)N(C)C(=O)C2(CCCC2)NC(=O)[C@@H]2CCCN2C(=O)[C@H](CCc2ccc(C(F)(F)F)c(Cl)c2)NC(=O)CN(C)C(=O)[C@H](Cc2ccc(C)cc2)N(CC)C(=O)CN(C)C(=O)CN(C)C1=O [PP0051] ([NMeL]I[Sar][Sar][NEtPhe(4-Me)][Sar][hPhe(3-Cl-4-CF3)]P[Ac5c][NMeGly(cPent)][NMeD]-{3Oxa8azabicyclo(3.2.1)octane}; lactam N-11) | C (A compound having a KD ratio of 0.1 or more and less than 3 is denoted as C) | C (A compound having a KD ratio of 0.1 or more and less than 3 is denoted as C)
11 | CCCN1C(=O)[C@@H]2CCN2C(=O)[C@H](C)N(C)C(=O)[C@H]([C@@H](C)CC)NC(=O)[C@H](CC(C)C)N(C)C(=O)C[C@@H](C(=O)N2CCOCC2)N(C)C(=O)[C@H](C2CCCC2)N(C)C(=O)C2(CCCC2)NC(=O)[C@@H]2CCCN2C(=O)[C@H](CCc2ccc(C(F)(F)F)c(Cl)c2)NC(=O)CN(C)C(=O)[C@@H]1Cc1ccc(C)cc1 [PP0052] ([NMeL]I[NMeA][Aze][NPrPhe(4-Me)][Sar][hPhe(3-Cl-4-CF3)]P[Ac5c][NMeGly(cPent)][NMeD]-Morpholide; lactam N-11) | C (A compound having a KD ratio of 0.1 or more and less than 3 is denoted as C) | B (a compound having 3 or more and less than 10 is denoted as B)
12 | CCCN1C(=O)[C@@H]2CCN2C(=O)[C@H](C)N(C)C(=O)[C@H]([C@@H](C)CC)NC(=O)[C@H](CC(C)C)N(C)C(=O)C[C@@H](C(=O)N2CCOCC2)N(C)C(=O)[C@H](C2CCCC2)N(C)C(=O)C2(CCCC2)NC(=O)[C@@H]2CCCN2C(=O)[C@H](CCc2ccc(C(F)(F)F)c(Cl)c2)NC(=O)CN(C)C(=O)[C@@H]1Cc1ccc(C(F)(F)F)cc1 [PP0053] ([NMeL]I[NMeA][Aze][NPrPhe(4-CF3)][Sar][hPhe(3-Cl-4-CF3)]P[Ac5c][NMeGly(cPent)][NMeD]-Morpholide; lactam N-11) | C (A compound having a KD ratio of 0.1 or more and less than 3 is denoted as C) | C (A compound having a KD ratio of 0.1 or more and less than 3 is denoted as C)
13 | CCCCN1C(=O)[C@@H]2CCN2C(=O)[C@H](C)N(C)C(=O)[C@H]([C@@H](C)CC)NC(=O)[C@H](CC(C)C)N(C)C(=O)C[C@@H](C(=O)N2CCOCC2)N(C)C(=O)[C@H](C2CCCC2)N(C)C(=O)C2(CCCC2)NC(=O)[C@@H]2CCCN2C(=O)[C@H](CCc2ccc(C(F)(F)F)c(Cl)c2)NC(=O)CN(C)C(=O)[C@@H]1Cc1ccc(C)cc1 [PP0055] ([NMeL]I[NMeA][Aze][X19][Sar][hPhe(3-Cl-4-CF3)]P[Ac5c][NMeGly(cPent)][NMeD]-Morpholide; lactam N-11) | C (A compound having a KD ratio of 0.1 or more and less than 3 is denoted as C) | C (A compound having a KD ratio of 0.1 or more and less than 3 is denoted as C)
